Assay results from ChEMBL document CHEMBL1201862, “PubChem BioAssay data set” (2004).
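Briefly, cells in 96-well plates were exposed to five compound concentrations for 48 h, and endpoints were estimated by linear interpolation. Abbreviation: GI50, concentration required for 50% inhibition of growth.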 Active and inactive are the calls of the source. Cut-off read from the data, not from the text of the source: active = GI50 up to about 1.1 µM and inactive = higher.

How the values were obtained:
Test in all cases: NCI-60 cell line screen, 48 h
SF-268 = tested on: SF-268
NCI-H522 = tested on: NCI-H522
A549 = tested on: A549
COLO 205 = tested on: COLO 205
SF-295 = tested on: SF-295
HOP-92 = tested on: HOP-92
IGROV-1 = tested on: IGROV-1
HCC 2998 = tested on: HCC 2998
SR = tested on: SR
U-251 = tested on: U-251
NCI-H23 = tested on: NCI-H23
CCRF-CEM = tested on: CCRF-CEM
TK-10 = tested on: TK-10
HOP-62 = tested on: HOP-62
OVCAR-8 = tested on: OVCAR-8
SNB-75 = tested on: SNB-75
A498 = tested on: A498
LOX IMVI = tested on: LOX IMVI
BT-549 = tested on: BT-549

Compound | GI50 (SF-268) | GI50 (NCI-H522) | GI50 (A549) | GI50 (COLO 205) | GI50 (SF-295) | GI50 (HOP-92) | GI50 (IGROV-1) | GI50 (HCC 2998) | GI50 (SR) | GI50 (U-251) | GI50 (NCI-H23) | GI50 (CCRF-CEM) | GI50 (TK-10) | GI50 (HOP-62) | GI50 (OVCAR-8) | GI50 (SNB-75) | GI50 (A498) | GI50 (LOX IMVI) | GI50 (BT-549)
CC(O)[C@@]1(c2ccccc2)CC2(CCN(C)CC2)O[C@H]1C (stereo not given in full) | > 100 µM (inactive) | > 100 µM (inactive) | > 100 µM (inactive) | > 100 µM (inactive) | > 100 µM (inactive) | 22.2 µM (inactive) | > 100 µM (inactive) | > 100 µM (inactive) | > 100 µM (inactive) | > 100 µM (inactive) | > 100 µM (inactive) | 0.465 µM (active) | > 100 µM (inactive) | > 100 µM (inactive) | > 100 µM (inactive) | > 100 µM (inactive) | > 100 µM (inactive) | > 100 µM (inactive) | –
COC(=O)CCN1CCN(CCO)CC1C (stereo not given) | > 10 µM (inactive) | > 10 µM (inactive) | > 10 µM (inactive) | > 10 µM (inactive) | > 10 µM (inactive) | – | > 10 µM (inactive) | > 10 µM (inactive) | > 10 µM (inactive) | > 10 µM (inactive) | > 10 µM (inactive) | > 10 µM (inactive) | > 10 µM (inactive) | > 10 µM (inactive) | > 10 µM (inactive) | > 10 µM (inactive) | > 10 µM (inactive) | > 10 µM (inactive) | –
N=C(N)NCC[C@H](NC(=O)OCCCCCn1ccc(=O)[nH]c1=O)C(=O)O | > 100 µM (inactive) | – | > 100 µM (inactive) | > 100 µM (inactive) | > 100 µM (inactive) | > 100 µM (inactive) | – | > 100 µM (inactive) | – | > 100 µM (inactive) | > 100 µM (inactive) | > 100 µM (inactive) | > 100 µM (inactive) | > 100 µM (inactive) | > 100 µM (inactive) | 41.4 µM (inactive) | – | > 100 µM (inactive) | > 100 µM (inactive)
COc1nc(C)nc2c1ncn2Cc1ccccc1 | 57.3 µM (inactive) | > 100 µM (inactive) | > 100 µM (inactive) | > 100 µM (inactive) | > 100 µM (inactive) | < 0.01 µM (active) | > 100 µM (inactive) | > 100 µM (inactive) | > 100 µM (inactive) | > 100 µM (inactive) | > 100 µM (inactive) | > 100 µM (inactive) | > 100 µM (inactive) | > 100 µM (inactive) | > 100 µM (inactive) | > 100 µM (inactive) | > 100 µM (inactive) | > 100 µM (inactive) | –
O=C(CON1C(=O)c2ccccc2C1=O)c1ccccc1 | > 100 µM (inactive) | 17.7 µM (inactive) | > 100 µM (inactive) | 56.4 µM (inactive) | > 100 µM (inactive) | 58.6 µM (inactive) | > 100 µM (inactive) | – | – | > 100 µM (inactive) | > 100 µM (inactive) | – | 20.7 µM (inactive) | > 100 µM (inactive) | > 100 µM (inactive) | 97.5 µM (inactive) | > 100 µM (inactive) | 35.6 µM (inactive) | > 100 µM (inactive)
C=CCOC(=O)Cn1ccc(=O)[nH]c1=O | > 100 µM (inactive) | – | > 100 µM (inactive) | > 100 µM (inactive) | > 100 µM (inactive) | – | > 100 µM (inactive) | > 100 µM (inactive) | > 100 µM (inactive) | > 100 µM (inactive) | > 100 µM (inactive) | > 100 µM (inactive) | > 100 µM (inactive) | > 100 µM (inactive) | > 100 µM (inactive) | > 100 µM (inactive) | > 100 µM (inactive) | > 100 µM (inactive) | –
CCOC(=O)/C(=C\NC(N)=S)C(=O)c1ccccc1 | > 100 µM (inactive) | – | > 100 µM (inactive) | > 100 µM (inactive) | > 100 µM (inactive) | > 100 µM (inactive) | > 100 µM (inactive) | > 100 µM (inactive) | – | > 100 µM (inactive) | > 100 µM (inactive) | – | > 100 µM (inactive) | > 100 µM (inactive) | > 100 µM (inactive) | > 100 µM (inactive) | > 100 µM (inactive) | > 100 µM (inactive) | > 100 µM (inactive)
O=c1c(C(c2ccco2)c2c(O)oc3ccccc3c2=O)c(O)oc2ccccc12 | 31.9 µM (inactive) | 19.5 µM (inactive) | – | 22.3 µM (inactive) | – | 25.5 µM (inactive) | 17.8 µM (inactive) | 26.5 µM (inactive) | – | 27.2 µM (inactive) | > 100 µM (inactive) | 26.8 µM (inactive) | 26.7 µM (inactive) | > 100 µM (inactive) | 27.4 µM (inactive) | 28.1 µM (inactive) | > 100 µM (inactive) | 28.2 µM (inactive) | –
O=C(CN1c2ccccc2Sc2ccccc21)N1CCNCC1 | > 100 µM (inactive) | – | > 100 µM (inactive) | > 100 µM (inactive) | > 100 µM (inactive) | 29.5 µM (inactive) | 71.4 µM (inactive) | – | – | 56.1 µM (inactive) | > 100 µM (inactive) | 99.8 µM (inactive) | > 100 µM (inactive) | > 100 µM (inactive) | > 100 µM (inactive) | 30.9 µM (inactive) | 34.6 µM (inactive) | > 100 µM (inactive) | > 100 µM (inactive)
O=C(O)CCCC#CCCCC(=O)O | > 100 µM (inactive) | > 100 µM (inactive) | > 100 µM (inactive) | > 100 µM (inactive) | > 100 µM (inactive) | > 100 µM (inactive) | > 100 µM (inactive) | > 100 µM (inactive) | > 100 µM (inactive) | > 100 µM (inactive) | > 100 µM (inactive) | – | > 100 µM (inactive) | > 100 µM (inactive) | > 100 µM (inactive) | 43.5 µM (inactive) | > 100 µM (inactive) | > 100 µM (inactive) | –
CC1(C)c2ccccc2C(O)C12CCC(=O)CC2 (stereo not given) | > 100 µM (inactive) | > 100 µM (inactive) | 34 µM (inactive) | > 100 µM (inactive) | > 100 µM (inactive) | > 100 µM (inactive) | > 100 µM (inactive) | > 100 µM (inactive) | > 100 µM (inactive) | > 100 µM (inactive) | > 100 µM (inactive) | – | > 100 µM (inactive) | > 100 µM (inactive) | – | – | > 100 µM (inactive) | > 100 µM (inactive) | –
Cc1cc(C)c(-c2no/c(=N\S(=O)(=O)c3ccc(Cl)cc3)o2)c(C)c1 | > 100 µM (inactive) | 28.6 µM (inactive) | > 100 µM (inactive) | 41.4 µM (inactive) | > 100 µM (inactive) | – | > 100 µM (inactive) | > 100 µM (inactive) | 24.7 µM (inactive) | > 100 µM (inactive) | > 100 µM (inactive) | > 100 µM (inactive) | > 100 µM (inactive) | > 100 µM (inactive) | > 100 µM (inactive) | > 100 µM (inactive) | > 100 µM (inactive) | – | –
COc1ccc2c(c1)-c1[nH]c3ccccc3c1CC2 | 14.9 µM (inactive) | 6.31 µM (inactive) | 15.2 µM (inactive) | 16.6 µM (inactive) | 14.2 µM (inactive) | 17.1 µM (inactive) | 3.9 µM (inactive) | 10.2 µM (inactive) | – | 16.6 µM (inactive) | 13.6 µM (inactive) | 18 µM (inactive) | 16.1 µM (inactive) | 16.8 µM (inactive) | 12.6 µM (inactive) | 15.2 µM (inactive) | – | 18.2 µM (inactive) | 17.2 µM (inactive)
O=C(O)CCC(c1ccccc1)(c1ccccc1)c1ccccc1 | 24.5 µM (inactive) | – | 28.9 µM (inactive) | 24.7 µM (inactive) | 50.7 µM (inactive) | 13.8 µM (inactive) | – | 32.4 µM (inactive) | 31.6 µM (inactive) | 39 µM (inactive) | 34.4 µM (inactive) | 64.3 µM (inactive) | 52.5 µM (inactive) | 34.8 µM (inactive) | 30.3 µM (inactive) | – | 41.4 µM (inactive) | 45.1 µM (inactive) | –
C[C@@H](CO)C1=CC(C#C[Si](C)(C)C)N(C(=O)Oc2ccccc2)c2ccccc21 (stereo not given in full) | 16.5 µM (inactive) | 16.8 µM (inactive) | 20.9 µM (inactive) | 23.8 µM (inactive) | 12.2 µM (inactive) | 11.7 µM (inactive) | 17.1 µM (inactive) | 15.2 µM (inactive) | 5.65 µM (inactive) | 18.3 µM (inactive) | 6.75 µM (inactive) | 20.4 µM (inactive) | 31.1 µM (inactive) | 15 µM (inactive) | 17.5 µM (inactive) | 10.1 µM (inactive) | – | 17.6 µM (inactive) | –
CC(O)C(CO)NC(=O)C1CSSCC(NC(=O)C(N)Cc2ccccc2)C(=O)NC(Cc2ccccc2)C(=O)NC(Cc2c[nH]c3ccccc23)C(=O)NC(CCCCN)C(=O)NC(C(C)O)C(=O)N1 (stereo not given) | > 100 µM (inactive) | > 100 µM (inactive) | > 100 µM (inactive) | > 100 µM (inactive) | > 100 µM (inactive) | > 100 µM (inactive) | > 100 µM (inactive) | – | > 100 µM (inactive) | > 100 µM (inactive) | > 100 µM (inactive) | > 100 µM (inactive) | > 100 µM (inactive) | > 100 µM (inactive) | > 100 µM (inactive) | > 100 µM (inactive) | > 100 µM (inactive) | > 100 µM (inactive) | –
CC(C(=O)NCNC(=O)c1ccccc1)C(=O)Nc1ccccc1 (stereo not given) | > 100 µM (inactive) | > 100 µM (inactive) | > 100 µM (inactive) | > 100 µM (inactive) | > 100 µM (inactive) | > 100 µM (inactive) | > 100 µM (inactive) | – | – | > 100 µM (inactive) | > 100 µM (inactive) | > 100 µM (inactive) | > 100 µM (inactive) | – | > 100 µM (inactive) | > 100 µM (inactive) | – | – | > 100 µM (inactive)
